Results as given in patent US10227323B2, “Glucosylceramide synthase inhibitors for the treatment of diseases” (BIOMARIN PHARMACEUTICAL INC., priority 2013, dated 2019).

Target: T1, GCS (Canis lupus familiaris, UniProt A0A8I3MXG6)
T1 sequence (A0A8I3MXG6 1-394): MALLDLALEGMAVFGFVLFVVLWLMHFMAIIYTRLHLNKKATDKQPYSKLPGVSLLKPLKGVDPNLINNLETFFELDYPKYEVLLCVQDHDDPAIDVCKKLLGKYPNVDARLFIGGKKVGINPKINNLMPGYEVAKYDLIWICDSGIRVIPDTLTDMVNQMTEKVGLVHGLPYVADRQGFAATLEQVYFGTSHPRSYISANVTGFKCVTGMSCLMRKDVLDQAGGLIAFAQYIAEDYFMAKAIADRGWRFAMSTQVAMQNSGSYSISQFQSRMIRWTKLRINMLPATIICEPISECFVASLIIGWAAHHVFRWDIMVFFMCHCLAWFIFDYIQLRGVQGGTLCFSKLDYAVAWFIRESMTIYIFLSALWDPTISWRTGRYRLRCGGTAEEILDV
Experiment: Assay 1: GCS Enzymatic Assay (MDCK cell lysate, C6-NBD-Ceramide, LC/MS)
Format: biochemical, canine
Details: Table 3, MDCK cell lysate; for IC50: read-out: IC50 (nM) generated from Assay 1
Method in brief: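 LC/MS/MS measurement of glucosylceramide and NBD-ceramide after a 1 h, 37 °C reaction with 100 μM UDP-glucose and 10 μM C6-NBD-ceramide gave IC50s or percent inhibition.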

| SMILES | IC50 | % inhibition generated from Assay 1 (values marked *) |
| --- | --- | --- |
| O=C(N[C@H](CN1CCCC1)[C@H](O)c1ccc(OC2CC2)c(F)c1)C(=O)c1ccc(C2CC2)cc1 [Example 395, N-((1R,2R)-1-(4-cyclopropoxy-3-fluorophenyl)-1-hydroxy-3-(pyrrolidin-1-yl)propan-2-yl)-2-(4-cyclopropylphenyl)-2-oxoacetamide] | < 50 nM |  |
| O=C(N[C@H](CN1CCCC1)[C@H](O)c1ccc(OC2CC2)c(F)c1)C(F)(F)c1ccc(-c2ccc(Cl)s2)cc1 [Example 397, 2-(4-(5-chlorothiophen-2-yl)phenyl)-N-((1R,2R)-1-(4-cyclopropoxy-3-fluorophenyl)-1-hydroxy-3-(pyrrolidin-1-yl)propan-2-yl)-2,2-difluoroacetamide] | < 50 nM |  |
| O=C(N[C@H](CN1CCCC1)[C@H](O)c1cc(F)c2c(c1)OCCO2)C(F)(F)c1ccc(-c2ccc(Cl)s2)cc1 [Example 398, 2-(4-(5-chlorothiophen-2-yl)phenyl)-2,2-difluoro-N-((1R,2R)-1-(8-fluoro-2,3-dihydrobenzo[b][1,4]dioxin-6-yl)-1-hydroxy-3-(pyrrolidin-1-yl)propan-2-yl)acetamide] | < 50 nM |  |
| O=C(N[C@H](CN1CCCC1)[C@H](O)c1ccc(OC2CC2)cc1)C(=O)c1cc2ccc(Cl)cc2s1 [Example 399, 2-(6-chlorobenzo[b]thiophen-2-yl)-N-((1R,2R)-1-(4-cyclopropoxyphenyl)-1-hydroxy-3-(pyrrolidin-1-yl)propan-2-yl)-2-oxoacetamide] | < 50 nM |  |
| O=C(N[C@H](CN1CCCC1)[C@H](O)c1ccc(OC2CC2)c(Cl)c1)C(=O)c1ccc(-n2cccn2)cc1 [Example 400, 2-(4-(1H-pyrazol-1-yl)phenyl)-N-((1R,2R)-1-(3-chloro-4-cyclopropoxyphenyl)-1-hydroxy-3-(pyrrolidin-1-yl)propan-2-yl)-2-oxoacetamide] | < 50 nM |  |
| C#Cc1ccc(C(=O)C(=O)N[C@H](CN2CCCC2)[C@H](O)c2ccc(OC3CC3)cc2)cc1 [Example 401, N-((1R,2R)-1-(4-cyclopropoxyphenyl)-1-hydroxy-3-(pyrrolidin-1-yl)propan-2-yl)-2-(4-ethynylphenyl)-2-oxoacetamide] | 50 to 5000 nM |  |
| O=C(N[C@H](CN1CCCC1)[C@H](O)c1ccc(OC(F)F)cc1)C(=O)c1cc2ccc(Cl)cc2s1 [Example 405, 2-(6-chlorobenzo[b]thiophen-2-yl)-N-((1R,2R)-1-(4-(difluoromethoxy)phenyl)-1-hydroxy-3-(pyrrolidin-1-yl)propan-2-yl)-2-oxoacetamide] | 50 to 5000 nM |  |
| O=C(N[C@H](CN1CCCC1)[C@H](O)c1ccc(OC2CC2)c(Cl)c1)/C(CCc1ccc2cc(F)ccc2c1)=N/O [Example 406, (E)-N-((1R,2R)-1-(3-chloro-4-cyclopropoxyphenyl)-1-hydroxy-3-(pyrrolidin-1-yl)propan-2-yl)-4-(6-fluoronaphthalen-2-yl)-2-(hydroxyimino)butanamide] |  | A* (the compound had a % inhibition of a percent inhibition of greater than or equal to about 50%) |

Continued, in another order:

| IC50 | SMILES | % inhibition generated from Assay 1 (values marked *) |
| --- | --- | --- |
| < 50 nM | O=C(N[C@H](CN1CCCC1)[C@H](O)c1ccc(OC2CC2)cc1)C(F)(F)c1ccc(-c2ccc(Cl)s2)cc1 [Example 393, 2-(4-(5-chlorothiophen-2-yl)phenyl)-N-((1R,2R)-1-(4-cyclopropoxyphenyl)-1-hydroxy-3-(pyrrolidin-1-yl)propan-2-yl)-2,2-difluoroacetamide] |  |
| < 50 nM | O=C(N[C@H](CN1CCCC1)[C@H](O)c1ccc(OC2CC2)cc1)C(F)(F)c1ccc(-c2ccc(F)cc2)cc1 [Example 394, N-((1R,2R)-1-(4-cyclopropoxyphenyl)-1-hydroxy-3-(pyrrolidin-1-yl)propan-2-yl)-2,2-difluoro-2-(4′-fluoro-[1,1′-biphenyl]-4-yl)acetamide] |  |
| < 50 nM | O=C(N[C@H](CN1CCCC1)[C@H](O)c1ccc(OC2CC2)c(Cl)c1)C(F)(F)c1ccc(-c2ccc(Cl)s2)cc1 [Example 396, N-((1R,2R)-1-(3-chloro-4-cyclopropoxyphenyl)-1-hydroxy-3-(pyrrolidin-1-yl)propan-2-yl)-2-(4-(5-chlorothiophen-2-yl)phenyl)-2,2-difluoroacetamide] |  |
| 50 to 5000 nM | O=C(N[C@H](CN1CCCC1)[C@H](O)c1ccc(OC2CC2)cc1)C(F)(F)CCc1ccc2cc(Cl)ccc2c1 [Example 402, 4-(6-chloronaphthalen-2-yl)-N-((1R,2R)-1-(4-cyclopropoxyphenyl)-1-hydroxy-3-(pyrrolidin-1-yl)propan-2-yl)-2,2-difluorobutanamide] |  |
| < 50 nM | O=C(N[C@H](CN1CCCC1)[C@H](O)c1ccc(OC2CC2)c(Cl)c1)C(=O)c1ccc(-n2nccn2)cc1 [Example 403, 2-(4-(2H-1,2,3-triazol-2-yl)phenyl)-N-((1R,2R)-1-(3-chloro-4-cyclopropoxyphenyl)-1-hydroxy-3-(pyrrolidin-1-yl)propan-2-yl)-2-oxoacetamide] |  |
| < 50 nM | CN(C(=O)C(=O)c1ccc(-c2ccc(F)cc2)cc1)[C@H](CN1CCCC1)[C@H](O)c1ccc(OC2CC2)c(F)c1 [Example 404, N-((1R,2R)-1-(4-cyclopropoxy-3-fluorophenyl)-1-hydroxy-3-(pyrrolidin-1-yl)propan-2-yl)-2-(4′-fluoro-[1,1′-biphenyl]-4-yl)-N-methyl-2-oxoacetamide] |  |
